Reference: patent US11931335B2, “Enhancing autophagy or increasing longevity by administration of urolithins or precursors thereof” (Amazentis SA, priority 2012, dated 2024)
“Also recorded” adds a separate entry of the source. Like-named read-outs stand apart in the source and are kept apart here.

Legend:
C. elegans = test: Pharyngeal pumping in C. elegans; format: in vivo; settings: day 14 (aged worms); 50 μM; FIG. 11
Experimental: To examine the effect of urolithins on muscle function, pharyngeal pumping was examined in C. elegans worms at day 7 and day 14. Worms were observed using a Nikon SMZ1500 stereomicroscope (Nikon, Melville, NY, USA). Ten L4 worms were transferred on plates containing NGM medium with vehicle (DMSO 0.1%, final concentration) or the compound of interest (urolithin A (UA), urolithin B (UB), urolithin C (UC), urolithin D (UD)) dissolved in DMSO (final concentration 50 μM) and seeded with E. coli RNAi clones as indicated. After 3 days (corresponding to day 0), newly developed 60 to 100 L4 worms were used per condition, scored and transferred to fresh plates every 3 days starting from day 1 (young adult worms). Experiments were performed at 20° C.
The pharyngeal pumping rates at day 7 and 14 were measured for 10 worms by transferring single worms to an unseeded plate and scoring for pharyngeal pumping under a dissecting microscope for 30 seconds. The pharyngeal pumping rates were then computed by extrapolating the pumping made by worms during this 30 second period.

[1] = system: C. elegans fed bec-1 RNAi; test: Lifespan with RNAi against bec-1; format: in vivo; settings: 50 μM; vs empty vector; FIG. 10C
Experimental: Lifespan tests were performed as described. Mouchiroud L et al. (2011) Aging Cell 10:39-54. Briefly, worms were observed using a Nikon SMZ1500 stereomicroscope (Nikon, Melville, NY, USA). Briefly, 10 L4 worms were transferred on plates containing NGM medium with vehicle (DMSO 0.1%, final concentration) or urolithin A dissolved in DMSO (final concentration 50 μM) and seeded with E. coli RNAi clones as indicated. After 3 days (corresponding to day 0), newly developed 60-100 L4 worms were used per condition, scored and transferred to fresh plates every 3 days starting from day 1 (young adult worms). All lifespan experiments were performed at 20° C.
Survival analyses were performed using the Kaplan Meier method and the significance of differences between survival curves calculated using the log rank test. Differences between two groups were assessed using two-tailed t-tests. Analysis of variance, assessed by Bonferroni's multiple comparison test, was used when comparing more than two groups. The statistical software used was GraphPad Prism 5 (GraphPad Software, Inc.) and all p-values <0.05 were considered significant.
Gene silencing was carried out as previously described by using the RNA interference (RNAi) process. Mouchiroud L et al. (2011) Aging Cell 10:39-54. In C. elegans, RNAi is made by feeding. […]

[2] = system: aak-2(ok524) mutant C. elegans; format: in vivo; settings: aak-2 (o524); for Lifespan extension compared to control (%): 50 μM UA vs 1% DMSO
Experimental: (§1) Lifespan assays were performed with (A) wild-type (N2), (B) sir-2.1(ok434) mutant, (C) aak-2(ok524), (D) daf-16(mu86), (E) eat-2(ad465) and (F) daf-2(e1370) mutant strains of C. elegans maintained during their full life on plates supplemented with either 50 μM of urolithin A or with a control treatment and seeded with OP50 bacteria. Control plates without urolithin A contained an equivalent concentration of DMSO. Worm lifespan assays were performed at 20° C.
aak-2/AMPK: aak-2 encodes the mammalian homolog of the AMP-dependent kinase AMPK in C. elegans.

[3] = system: undifferentiated C2C12 mouse myoblasts; test: LC3B flow cytometry in C2C12 myoblasts; format: cell-based; settings: for LC3B expression (LC3B-FITC fluorescence): 10 μM, 50 μM and 100 μM, 24 hours, FIG. 25
Experimental: To determine the ability of urolithin A to induce autophagy in mouse muscle cells, undifferentiated C2C12 mouse myoblasts were seeded in T25 flasks and incubated overnight. Cells were incubated in 5% CO2 at 37° C. These cells were treated with one of the urolithins-urolithin A (UA), urolithin B (UB), urolithin C (UC) or urolithin D (UD)—dissolved in a 0.1% solution of DMSO for 24 hours. In one experiment UA, UB, UC and UD were dosed at a concentration of 100 μM for C2C12 myoblast treatment. In a separate study, C2C12 myoblasts were incubated at increasing concentrations of UA (10 μM, 50 μM and 100 μM). For each experiment a control culture was treated with 0.1% DMSO for the same period and served as the untreated control. In the final 30 minutes of incubation, lysosome degradation inhibitor was added to the culture. The cells were then washed with phosphate buffer solution and then treated with a 1% solution of trypsin enzyme to remove the adhesive cells from the cell culture dishes. The cells were then treated with EMD Millipore selective permeabilization reagent to permeabilize the cells so as to make the internal cellular proteins accessible to antibody treatment. Cells were then incubated with antibody to LC3B according to kit protocol (EMD Millipore FlowCellect™ Autophagy LC3 Antibody-based Assay Kit (Cat no. FCCH100171)). The cells were then washed and resuspended in the kit assay buffer. The resulting cells were then run through a flow cytometer and LC3B-FITC fluorescence was quantified to measure the level of LC3B in C2C12 cells for the various treatments. When cells undergo autophagy their intracellular levels of LC3-II increase which is detected by this method. This autophagy can be detected by fluorescent antibody labeling of LC3B, which can be measured quantitatively using flow cytometry. An increase in cellular autophagy is reflected by an increasing signal in the histogram of LC3B FITC.

[4] = system: daf-2(e1370) mutant C. elegans; format: in vivo
Experimental: as §1
daf-2 encodes for the insulin-like growth factor 1 (IGF-1) receptor in C. elegans.

[5] = system: daf-16(mu86) mutant C. elegans; test: Lifespan assay, daf-16 mutant C. elegans; format: in vivo
Experimental: as §1
daf-16 encodes a FOXO transcription factor.

For `O=c1oc2cc(O)ccc2c2ccc(O)cc12` [Urolithin A, urolithin A], the “pharyngeal pumping (muscle function)” value (C. elegans) was “decreases the age related decline in muscle activity”, the “lifespan extension by urolithin A under bec-1 RNAi” value [1] was “suppressed; also recorded: totally suppress the lifespan phenotype” and the “Median lifespan” value ([2]; 50 μM UA) was 18 days. The “Lifespan extension compared to control (%)” value (from here on “Lifespan extension … (%)”) [2] was 12.5%, the “Lifespan extension … (%)” value ([2]; listed as UA) was “+12.5%” and the “LC3B expression (LC3B-FITC fluorescence)” value [3] was “dose dependent”. For the same molecule, the “LC3B expression (LC3B-FITC fluorescence)” value ([3]; listed as UA) was “dose response”, the “LC3B signal (shift of the histogram)” value ([3]; 100 μM, 24 hrs, FIG. 26, listed as UA) was “increasing signal of LC3B; also recorded: increase in autophagy” and the “Median lifespan” value ([4]; daf-2, 50 μM UA) was 48 days. For the same molecule, the “Lifespan extension … (%)” value ([4]; daf-2, 50 μM UA vs 1% DMSO) was “+14.2%”, the “activity of urolithin A on the extension of median lifespan” value ([4]; daf-2 mutant) was “completely suppressed” and the “Median lifespan” value ([5]; 50 μM UA) was 23 days. For the same molecule, the “Lifespan extension … (%)” value ([5]; 50 μM UA vs 1% DMSO) was “+43.7%”.
